Data from paper PMC9657391, “A Food-Grade Method for Enhancing the Levels of Low Molecular Weight Proanthocyanidins with Potentially High Intestinal Bioavailability” (International Journal of Molecular Sciences, 2022).

Molecular target: T1, COX-2 (cyclooxygenase 2) (Homo sapiens, UniProt P35354)
T1 construct: gene PTGS2
Assay: biochemical

T1 sequence (P35354 18-604): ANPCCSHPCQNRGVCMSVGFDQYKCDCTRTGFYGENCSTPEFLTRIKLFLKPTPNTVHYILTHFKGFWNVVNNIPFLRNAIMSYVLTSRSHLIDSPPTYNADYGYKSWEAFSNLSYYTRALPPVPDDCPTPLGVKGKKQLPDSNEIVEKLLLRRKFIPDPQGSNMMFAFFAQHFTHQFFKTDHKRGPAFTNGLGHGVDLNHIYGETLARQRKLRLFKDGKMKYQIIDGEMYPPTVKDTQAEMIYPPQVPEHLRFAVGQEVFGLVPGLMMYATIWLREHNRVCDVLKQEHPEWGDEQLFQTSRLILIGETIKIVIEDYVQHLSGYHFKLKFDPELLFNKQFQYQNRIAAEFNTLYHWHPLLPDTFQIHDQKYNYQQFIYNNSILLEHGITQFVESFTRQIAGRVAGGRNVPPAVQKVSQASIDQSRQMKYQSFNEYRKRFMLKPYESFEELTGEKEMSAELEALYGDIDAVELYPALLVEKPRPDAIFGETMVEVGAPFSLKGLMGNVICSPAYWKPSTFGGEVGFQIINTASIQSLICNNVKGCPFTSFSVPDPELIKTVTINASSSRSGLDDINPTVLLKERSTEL

COc1ccc2cc([C@H](C)C(=O)O)ccc2c1 [Naproxen]
IC50: 13 µM
